Source: article PMC11939078, “TAK-994 mechanistic investigation into drug-induced liver injury” (Toxicological Sciences, 2025)

Legend:
human liver microtissues [1] = assay: Human liver microtissue (co-culture) cytotoxicity, cellular ATP; format: cell-based
Procedure: (§1) Toxicology of TAK-994 was assessed using lnSphero’s 3D lnSight Human Liver models, based on N-acetyl-L-cysteine causality assay, glutathione depletion assay, and lipopolysaccharide (LPS)-sensitization assay. Hepatotoxicity was assessed in 7- and 14-day mono and co-culture models, in which cells were exposed to TAK-994 (0.1, 0.3, 1, 3.16, 10, 31.6, or 100 μM) […].
The test system was Human 3D InSight Liver Models, production ID hLiMT_589, cryopreserved primary human hepatocytes (Lot IPDH_18; single donor) in monoculture or in co-culture with cryopreserved primary human nonparenchymal cells (Lot IPHN_17; single donor). Human liver microtissues are composed of roughly 1000 hepatocytes and 1000 non-parenchymal live cells. Non-parenchymal liver cell fractions are expected to be composed of Kupffer cells and liver endothelial cells however, these were not identified.
The culture medium was 3D InSight Human Liver Maintenance Medium TOX (Catalogue No. CS-07-001, InSphero). The treated cells in 96-well Akura™ plates were incubated in a humidified cell culture incubator (37°C, 5% CO2).
Mono and co-culture model cells were exposed to TAK-994 (0.1, 0.3, 1, 3.16, 10, 31.6, or 100 μM in 0.5% DMSO) for 7 days (TAK-994 administered on Days 0 and 4) or 14 days (TAK-994 administered on Days 0, 5, and 9). Six replicates were tested for each condition. The vehicle control was 0.5% DMSO, and the positive control was chlorpromazine (0.1, 0.3, 1, 3.16, 10, 31.6, or 100 μM in DMSO). Cellular ATP content was measured in the cell lysate on Days 7 or 14 of treatment. LDH release was measured in the cell supernatant on Days 4 and 7 or on Days 5, 9, and 14 and normalized to lysed controls.
(§2) Intracellular ATP content in model lysates was measured with the CellTiter-Glo® 2.0 Cell Viability Assay (Catalogue No. G9243, Promega). The Bioluminescent LDH Release Toxicity Assay Kit (Catalogue No. J2380, Promega) was used to assess extracellular LDH release and normalized to lysed controls. ATP, LDH, GSH, and triglycerides were measured according to internal technical operating procedures.

cynomolgus monkeys = assay: Monkey 39-week oral gavage toxicity study; format: in vivo, cynomolgus monkey; conditions: for Histopathological Liver Findings / ALT / AST / GLDH: monkey 39-week; for ALT / AST / GLDH: mean (SD)
Excerpt: TAK-994 performed well in tiered safety screening assays, with wide margins between in vitro IC50 and the predicted efficacious exposures (Table 1). […] Based on the safety profiles observed in these animal studies, TAK-994 progressed into phase I clinical trials.
^bAll dose levels had 4 animals per sex. No statistical difference was observed between the TAK-994 and control groups.

human liver microtissues [2] = assay: Glutathione depletion (BSO) assay in liver microtissues; format: cell-based; conditions: for IC50: cellular ATP, 14 days
Procedure: as §1
Co-culture model cells were pretreated with BSO (150 μM in DMSO) and then exposed to TAK-994 (0.1, 0.3, 1, 3.16, 10, 31.6, or 100 μM in 0.5% DMSO) in the presence and absence of BSO for 14 days (during the treatment period, TAK-994 with or without BSO was administered on Days 0, 5, and 9). Six replicates were tested for each condition. The vehicle control was 0.5% DMSO and the positive control was acetaminophen (0.6, 1.25, 2.5, or 5 mM in Medium TOX). Cellular ATP content was measured in the cell lysate on Day 14 of treatment. LDH release was measured on Days 5, 9, and 14 in the cell supernatant. For cells administered BSO alone, cellular ATP content was also measured on Day 3 and LDH release was also determined between Days 0 to 3. LDH measurements were normalized to lysed controls. Cellular GSH content was measured by GSH-Glo™ Glutathione Assay (Promega) on Days 0, 3, and 14 in the positive control group.
as §2

participants = assay: Phase I first-in-human study TAK-994-1001, safety; format: in vivo
Excerpt: TAK-994 was considered to be well tolerated in phase I studies. […] Of 121 participants, 1 subject discontinued due to elevated alanine aminotransferase (ALT) with no other liver enzyme elevations. This event was considered mild in intensity and the participant recovered within 2 wk. No other clinically significant liver enzyme elevations were reported in phase I studies.

CC(C)(O)C(=O)N1CC[C@H](NS(C)(=O)=O)[C@@H]1Cc1cccc(-c2cc(F)cc(F)c2)c1F.CC(C)(O)C(=O)N1CC[C@H](NS(C)(=O)=O)[C@@H]1Cc1cccc(-c2cc(F)cc(F)c2)c1F.O.O.O [TAK-994]
loss of cellular ATP (human liver microtissues [1]; 100 µM TAK-994, presence of nonparenchymal cells): ~50%
liver microtissue IC50 relative to clinical Cmax (human liver microtissues [1]; 14 days, Cmax in patients dosed at 90 mg): > 100 fold
IC50 (human liver microtissues [1]; cellular ATP, read-out: IC50, liver microtissues (Fig. 2B)): > 100 µM
adverse liver findings, chronic dose toxicity study (cynomolgus monkeys; cynomolgus monkeys, 9-mo, up to the high dose tested of 1,000 mg/kg): no adverse liver findings
Histopathological Liver Findings (cynomolgus monkeys; female, 60 mg/kg): No adverse findings
ALT (cynomolgus monkeys; female, 60 mg/kg): 35 (9) IU/L
AST (cynomolgus monkeys; female, 60 mg/kg): 31 (6) IU/L
GLDH (cynomolgus monkeys; female, 60 mg/kg): 11 (2) IU/L
Histopathological Liver Findings (cynomolgus monkeys; female, 200 mg/kg): No adverse findings
ALT (cynomolgus monkeys; female, 200 mg/kg): 28 (9) IU/L
AST (cynomolgus monkeys; female, 200 mg/kg): 27 (12) IU/L
GLDH (cynomolgus monkeys; female, 200 mg/kg): 11 (1) IU/L
Histopathological Liver Findings (cynomolgus monkeys; female, 1000 mg/kg): No adverse findings
ALT (cynomolgus monkeys; female, 1000 mg/kg): 34 (10) IU/L
AST (cynomolgus monkeys; female, 1000 mg/kg): 24 (5) IU/L
GLDH (cynomolgus monkeys; female, 1000 mg/kg): 12 (1) IU/L
Histopathological Liver Findings (cynomolgus monkeys; male, 60 mg/kg): No adverse findings
ALT (cynomolgus monkeys; male, 60 mg/kg): 42 (20) IU/L
AST (cynomolgus monkeys; male, 60 mg/kg): 30 (12) IU/L
GLDH (cynomolgus monkeys; male, 60 mg/kg): 12 (3) IU/L
Histopathological Liver Findings (cynomolgus monkeys; male, 200 mg/kg): No adverse findings
ALT (cynomolgus monkeys; male, 200 mg/kg): 32 (2) IU/L
AST (cynomolgus monkeys; male, 200 mg/kg): 23 (7) IU/L
GLDH (cynomolgus monkeys; male, 200 mg/kg): 13 (1) IU/L
Histopathological Liver Findings (cynomolgus monkeys; male, 1000 mg/kg): No adverse findings
ALT (cynomolgus monkeys; male, 1000 mg/kg): 33 (9) IU/L
AST (cynomolgus monkeys; male, 1000 mg/kg): 22 (4) IU/L
GLDH (cynomolgus monkeys; male, 1000 mg/kg): 13 (3) IU/L
sensitization of liver microtissues by buthionine sulfoximine depletion (human liver microtissues [2]): no such sensitivity was observed
IC50 (human liver microtissues [2]; glutathione depleted, read-out: IC50, liver microtissues + BSO (Fig. 4A)): > 100 µM
IC50 (human liver microtissues [2]; read-out: IC50, liver microtissues without BSO (Fig. 4A)): > 100 µM
deaths or SAEs (participants; TAK-994-1001): no deaths or SAEs were reported
subjects discontinued due to elevated ALT (participants; of 121 participants): 1
